# Results reported in patent publication US6465492B1, “Heterocyclic compounds” (Sinon Corporation, priority 2001, dated 2002).
# System: aphids
# Test: Biological test on aphid (spray on cabbage leaf in Petri dishes)
# Format: in vivo
# Settings: for Number of dead aphids 1st: 1st Petri dish; for Number of dead aphids 1st / Number of dead aphids 2nd / Number of dead aphids 3rd / Number of dead aphids 4th: 20 aphids on cabbage leaf, 9.6% w/w pesticide reagent diluted 1000 times with water, sprayed, examined after 24 hours; for Number of dead aphids 2nd: 2nd Petri dish; for Number of dead aphids 3rd: 3rd Petri dish; for Number of dead aphids 4th: 4th Petri dish; for Number of dead aphids average: average of four Petri dishes
# Experimental: 9.6 g of the compound (based on the active ingredient) obtained from Example 1 was blended with 90.4 g of a solvent to form a 9.6% w/w pesticide reagent An 8 cm×8 cm piece of cabbage leaf was placed on a lump of wetted cotton in each one of four Petri dishes. 20 aphids were subsequently put on the cabbage leaf in each one of the Petri dishes. The thus formed pesticide reagent was diluted 1000 times with water to form a diluted solution which was then sprayed onto the cabbage leaf in each one of the Petri dishes in a predetermined amount. The number of dead aphids in each one of the Petri dishes was examined after 24 hours.
# Example 13 was repeated, except that the compound employed in Example 13 was replaced by the compound obtained from a respective one of the Examples 2 to 12.
# Example 13 was repeated, except that the compound employed in Example 13 was replaced by imidachloprid which is a heterocyclic compound of the formula disclosed in U.S. Pat. No. 4,742,060.
# Table 2 lists the effectiveness of the pesticide reagents prepared in Examples 13 to 24 and the Comparative Example 1.
# [1] = 20 aphids each, 9.6% w/w reagent diluted 1000 times, after 24 hours
Compound,Number of dead aphids 1st,Number of dead aphids 2nd,Number of dead aphids 3rd,Number of dead aphids 4th,Number of dead aphids average [1],"Effectiveness (higher value indicates greater effectivity, four Petri dishes, 20 aphids each, 9.6% w/w reagent diluted 1000 times, after 24 hours)"
"O=S(=O)(N=C1SCCN1Cc1ccc(Cl)nc1)c1ccc(Cl)cc1 [Example 23, 3-(2-chloro-5-pyridylmethyl)-2-[(4-chlorophenyl)sulfonylimino]thiazolidine]",18,18,16,18,17.5,–
"O=S(=O)(N=C1NCCCN1Cc1ccc(Cl)nc1)c1ccc(Cl)cc1 [Example 18, 3-(2-chloro-5-pyridylmethyl)-2-[(4-chlorophenyl)sulfonylimino]tetrahydropyrimidine]",19,19,19,17,18.5,–
"CS(=O)(=O)/N=C1\SCCN1Cc1ccc(Cl)nc1 [Example 21, 3-(2-chloro-5-pyridylmethyl)-2-[methylsulfonylimino]thiazolidine]",16,18,19,18,17.75,–
"O=[N+]([O-])/N=C1\NCCN1Cc1ccc(Cl)nc1 [Comparative Example 1, imidachloprid, reference compound]",18,17,18,16,17.25,86.08
"Cc1ccc(S(=O)(=O)N=C2OCCN2Cc2ccc(Cl)nc2)cc1 [Example 20, 3-(2-chloro-5-pyridylmethyl)-2-[(4-methylphenyl)sulfonylimino]oxazolidine]",17,16,18,15,16.5,–
"Cc1ccc(S(=O)(=O)N=C2SCCN2Cc2ccc(Cl)nc2)cc1 [Example 19, 3-(2-chloro-5-pyridylmethyl)-2-[(4-methylphenyl)sulfonylimino]thiazolidine]",17,16,18,17,17,–
"O=S(=O)(N=C1NCCN1Cc1ccc(Cl)nc1)c1ccc(Cl)cc1 [Example 17, 3-(2-chloro-5-pyridylmethyl)-2-[(4-chlorophenyl)sulfonylimino]imidazolidine]",20,18,19,20,19.25,–
"Cc1ccc(S(=O)(=O)N=C2NCCCN2Cc2ccc(Cl)nc2)cc1 [Example 14, 3-(2-chloro-5-pyridylmethyl)-2-[(4-methylphenyl)sulfonylimino]tetrahydropyrimidine]",16,17,17,16,16.5,–
"CS(=O)(=O)N=C1NCCCN1Cc1ccc(Cl)nc1 [Example 16, 3-(2-chloro-5-pyridylmethyl)-2-[methylsulfonylimino]tetrahydropyrimidine]",17,17,19,19,18,–
"Cc1ccc(S(=O)(=O)N=C2NCCN2Cc2ccc(Cl)nc2)cc1 [Example 13, 3-(2-chloro-5-pyridylmethyl)-2-[(4-methylphenyl)sulfonylimino]imidazolidine]",15,18,16,17,16.5,–
"CS(=O)(=O)/N=C1\NCCN1Cc1ccc(Cl)nc1 [Example 15, 3-(2-chloro-5-pyridylmethyl)-2-[methylsulfonylimino] imidazolidine]",16,18,19,19,18,–
"O=S(=O)(N=C1OCCN1Cc1ccc(Cl)nc1)c1ccc(Cl)cc1 [Example 24, 3-(2-chloro-5-pyridylmethyl)-2-[(4-chlorophenyl)sulfonylimino]oxazolidine]",15,18,19,19,17.75,–
"CS(=O)(=O)/N=C1\OCCN1Cc1ccc(Cl)nc1 [Example 22, 3-(2-chloro-5-pyridylmethyl)-2-[methylsulfonylimino]oxazolidine]",18,16,19,17,17.5,–
